Measured values reported in patent publication US20200147243A1, “LIGAND COMPOUND OF ALPHA7 NICOTINIC ACETYLCHOLINE RECEPTOR AND APPLICATION THEREOF” (BEIJING NORMAL UNIVERSITY, priority 2017, published 2020).
Where “and” joins values, the source holds several entries; their conditions need not be identical. Equal entries are not always repeated.

Experiments:
[1] = In vitro stability experiment in fetal bovine serum and normal saline; format: in vitro ADME
Description: The in vitro stability of the radioligand is of great importance for its further in vivo studies. Generally, the in vitro stability study is carried out in normal saline and animal serum. A specific method was as follows: respectively incubating 10 μCi of HPLC-purified radioligand [^18F] II-15 and 100 μL of fetal bovine serum at 37° C. for 1 h and 2 h, adding 200 μL of acetonitrile thereto after finishing the incubation to fully precipitate proteins, then centrifuging at […] for 5 min (7000 rpm), collecting supernatant, filtering the supernatant with filter membrane, and then performing HPLC analysis on 100 μL of the filtered supernatant; incubating 10 μCi of HPLC-purified radioligand [^18F] II-15 with 100 μL of normal saline at room temperature for 1 h and 2 h, respectively, and then directly analyzing by HPLC.

[2] = In vivo distribution experiment in animals; details: for brain/blood ratio / Absorption Amount, blood / Absorption Amount, bone / Absorption Amount, brain / Absorption Amount, heart / Absorption Amount, kidney / Absorption Amount, liver / Absorption Amount, lung / Absorption Amount, muscle / Absorption Amount, spleen: female Kunming mice; for Absorption Amount, blood / Absorption Amount, bone / Absorption Amount, brain / Absorption Amount, heart / Absorption Amount, kidney / Absorption Amount, liver / Absorption Amount, lung / Absorption Amount, muscle / Absorption Amount, spleen: tail vein
[3] = target: T1, 5-hydroxytryptamine receptor (Mus musculus, UniProt P23979); assay: Selective experiment in mouse brain, ondanstron pre-injection; format: in vivo, Kunming mice; details: 2 mg/kg ondanstron s.c. 10 min in advance, 60 min after administration
T1 construct: from tissue
T1 sequence (P23979 24-489): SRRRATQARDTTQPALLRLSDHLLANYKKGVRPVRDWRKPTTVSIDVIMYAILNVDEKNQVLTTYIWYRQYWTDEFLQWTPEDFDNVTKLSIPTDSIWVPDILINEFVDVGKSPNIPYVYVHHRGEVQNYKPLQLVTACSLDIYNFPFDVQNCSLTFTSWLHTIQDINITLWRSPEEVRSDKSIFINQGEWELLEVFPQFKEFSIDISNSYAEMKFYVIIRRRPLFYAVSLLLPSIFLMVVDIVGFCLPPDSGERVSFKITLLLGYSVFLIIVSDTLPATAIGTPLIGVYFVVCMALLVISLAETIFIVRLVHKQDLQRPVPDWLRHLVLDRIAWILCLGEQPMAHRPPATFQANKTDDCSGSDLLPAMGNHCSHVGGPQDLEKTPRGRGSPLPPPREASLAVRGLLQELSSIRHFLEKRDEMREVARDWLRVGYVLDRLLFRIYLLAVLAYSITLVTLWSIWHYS
Description: (§1) The selectivity of radioligand for α4β2 nAChR was explored by subcutaneously injecting 1 mg/kg of cytisine (0.1 mL, with an equal volume of normal saline and 1,2-propanediol as solvents) 5 min in advance, whereas the selectivity for the 5-hydroxytryptamine receptor was explored by subcutaneously injecting 2 mg/kg of ondanstron (0.1 mL, with saline:DMSO=5:1 (V:V) as solvents) 10 min in advance. In the experiment, two groups of mice (n=5, Kunming females, 28-30 g) were injected with 0.1 mL (60 μCi) of [^18F]

[4] = Lipid water partition coefficient (n-octanol / PBS pH 7.4); format: physicochemical; details: read-out: lipid water partition coefficient log P
α4β2 nAChR = target: T2, α4β2 nAChR (Mus musculus, UniProt O70174+Q9ERK7); assay: Selective experiment in mouse brain, cytisine pre-injection; format: in vivo, Kunming mice; details: 1 mg/kg cytisine s.c. 5 min in advance, 60 min after administration
T2 construct: from tissue
Description: as §1

[5] = Rat PET imaging (micro-PET/CT); format: in vivo; details: female CD-1 rats, images at 15, 30, 60 min
Description: The radioligand [^18F] II-15 (0.3 mL, 200 μCi) was injected into bodies of female CD-1 rats (180-200 g) in a manner of tail vein injection, then the rats were anesthetized with 3% isoflurane to be coma, and the rats were fixed in a prone posture on a micro-PET/CT imaging instrument (Super Argus PET 4R L/CT 180) for small animals, maintaining the rats in an anesthetic state by employing 1% isoflurane in the scanning imaging process. Image acquisition was carried out respectively 15 min, 30 min and 60 min after the administration, to observe the distribution condition of [^18F] II-15 in the brains of the rats.

T2 sequence (O70174 31-629): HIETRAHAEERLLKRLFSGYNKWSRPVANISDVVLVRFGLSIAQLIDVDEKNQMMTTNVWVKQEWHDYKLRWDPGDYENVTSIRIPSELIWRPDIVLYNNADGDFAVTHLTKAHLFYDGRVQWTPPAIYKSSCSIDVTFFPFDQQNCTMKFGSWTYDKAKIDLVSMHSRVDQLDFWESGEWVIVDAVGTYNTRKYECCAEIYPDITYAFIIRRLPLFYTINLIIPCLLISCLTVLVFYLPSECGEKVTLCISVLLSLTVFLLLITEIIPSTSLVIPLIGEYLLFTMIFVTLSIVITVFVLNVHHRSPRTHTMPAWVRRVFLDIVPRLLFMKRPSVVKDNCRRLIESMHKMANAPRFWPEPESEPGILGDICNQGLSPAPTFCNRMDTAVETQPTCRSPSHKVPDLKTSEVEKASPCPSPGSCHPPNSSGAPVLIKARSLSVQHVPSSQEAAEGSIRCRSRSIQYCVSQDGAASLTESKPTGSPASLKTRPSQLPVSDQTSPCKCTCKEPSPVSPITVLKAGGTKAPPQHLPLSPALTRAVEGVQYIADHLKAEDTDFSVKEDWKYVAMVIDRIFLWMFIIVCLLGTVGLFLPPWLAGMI
T2 sequence (Q9ERK7 26-501): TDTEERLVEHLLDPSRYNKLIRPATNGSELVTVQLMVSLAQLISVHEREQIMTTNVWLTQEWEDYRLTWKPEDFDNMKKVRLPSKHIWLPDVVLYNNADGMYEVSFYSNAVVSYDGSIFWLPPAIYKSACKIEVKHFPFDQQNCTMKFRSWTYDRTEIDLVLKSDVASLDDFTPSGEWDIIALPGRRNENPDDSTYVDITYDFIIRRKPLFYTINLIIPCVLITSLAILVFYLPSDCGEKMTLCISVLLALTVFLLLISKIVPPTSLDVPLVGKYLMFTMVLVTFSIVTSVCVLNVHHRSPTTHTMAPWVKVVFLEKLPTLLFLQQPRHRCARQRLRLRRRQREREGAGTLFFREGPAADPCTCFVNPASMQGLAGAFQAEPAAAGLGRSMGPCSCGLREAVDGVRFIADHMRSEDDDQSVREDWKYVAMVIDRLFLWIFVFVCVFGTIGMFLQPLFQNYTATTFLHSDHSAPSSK

**Q.** Which “radiochemical purity after incubation” value ([1]; fetal calf serum, 37° C., 1 h) does the source give for `O=C1c2cc(N3CCN4CCC3CC4)ccc2-c2cccc([18F])c21` [[^18F] II-15] here?
**A.** greater than 98%

**Q.** And the “radiochemical purity after incubation” value ([1]; fetal calf serum, 37° C., 2 h)?
**A.** greater than 98%

**Q.** What about the “radiochemical purity after incubation” value ([1]; normal saline, room temperature, 1 h) of the same molecule?
**A.** greater than 98%

**Q.** And the “radiochemical purity after incubation” value ([1]; normal saline, room temperature, 2 h)?
**A.** greater than 98%

**Q.** And the “in vivo defluorination phenomenon (bone absorption)” value ([2]; 5-90 min, mice)?
**A.** relatively weaker

**Q.** What about the brain/blood ratio ([2]; 5 min) of the same molecule?
**A.** 6.23

**Q.** What about the brain/blood ratio ([2]; 15 min) of the same molecule?
**A.** 9.57 and 9.35

**Q.** And the brain/blood ratio ([2]; 30 min)?
**A.** 9.57

**Q.** And the brain/blood ratio ([2]; 60 min)?
**A.** 8.03

**Q.** And the brain/blood ratio ([2]; 90 min)?
**A.** 6.98

**Q.** And the “Absorption Amount, blood” value ([2]; 5 min)?
**A.** 1.43 ± 0.06 % ID/g wet weight

**Q.** What about the “Absorption Amount, blood” value ([2]; 15 min) of the same molecule?
**A.** 1.24 ± 0.16 % ID/g wet weight

**Q.** And the “Absorption Amount, blood” value ([2]; 30 min)?
**A.** 1.03 ± 0.07 % ID/g wet weight

**Q.** What about the “Absorption Amount, blood” value ([2]; 60 min) of the same molecule?
**A.** 0.68 ± 0.01 % ID/g wet weight

**Q.** And the “Absorption Amount, blood” value ([2]; 90 min)?
**A.** 0.52 ± 0.06 % ID/g wet weight

**Q.** And the “Absorption Amount, bone” value ([2]; 5 min)?
**A.** 3.02 ± 0.11 % ID/g wet weight

**Q.** What about the “Absorption Amount, bone” value ([2]; 15 min) of the same molecule?
**A.** 4.55 ± 0.68 % ID/g wet weight

**Q.** What about the “Absorption Amount, bone” value ([2]; 30 min) of the same molecule?
**A.** 4.84 ± 0.18 % ID/g wet weight

**Q.** And the “Absorption Amount, bone” value ([2]; 60 min)?
**A.** 7.27 ± 1.31 % ID/g wet weight

**Q.** And the “Absorption Amount, bone” value ([2]; 90 min)?
**A.** 7.65 ± 0.52 % ID/g wet weight

**Q.** What about the “Absorption Amount, brain” value ([2]; 5 min) of the same molecule?
**A.** 8.98±0.41 % ID/g wet weight

**Q.** And the “Absorption Amount, brain” value ([2]; 15 min)?
**A.** 11.60±0.14 % ID/g wet weight

**Q.** And the “Absorption Amount, brain” value ([2]; 30 min)?
**A.** 9.86 ± 0.05 % ID/g wet weight

**Q.** What about the “Absorption Amount, brain” value ([2]; 60 min) of the same molecule?
**A.** 5.46±0.27 % ID/g wet weight

**Q.** What about the “Absorption Amount, brain” value ([2]; 90 min) of the same molecule?
**A.** 3.63±0.25 % ID/g wet weight

**Q.** And the “Absorption Amount, heart” value ([2]; 5 min)?
**A.** 8.37 ± 0.14 % ID/g wet weight

**Q.** What about the “Absorption Amount, heart” value ([2]; 15 min) of the same molecule?
**A.** 4.45 ± 0.62 % ID/g wet weight

**Q.** And the “Absorption Amount, heart” value ([2]; 30 min)?
**A.** 3.56 ± 0.31 % ID/g wet weight

**Q.** What about the “Absorption Amount, heart” value ([2]; 60 min) of the same molecule?
**A.** 2.19 ± 0.16 % ID/g wet weight

**Q.** And the “Absorption Amount, heart” value ([2]; 90 min)?
**A.** 1.71 ± 0.13 % ID/g wet weight

**Q.** And the “Absorption Amount, kidney” value ([2]; 5 min)?
**A.** 15.92 ± 0.24 % ID/g wet weight

**Q.** What about the “Absorption Amount, kidney” value ([2]; 15 min) of the same molecule?
**A.** 11.54 ± 0.79 % ID/g wet weight

**Q.** What about the “Absorption Amount, kidney” value ([2]; 30 min) of the same molecule?
**A.** 8.06 ± 0.69 % ID/g wet weight

**Q.** What about the “Absorption Amount, kidney” value ([2]; 60 min) of the same molecule?
**A.** 4.85 ± 0.443 % ID/g wet weight

**Q.** What about the “Absorption Amount, kidney” value ([2]; 90 min) of the same molecule?
**A.** 4.26 ± 0.19 % ID/g wet weight

**Q.** And the “Absorption Amount, liver” value ([2]; 5 min)?
**A.** 8.19 ± 1.19 % ID/g wet weight

**Q.** And the “Absorption Amount, liver” value ([2]; 15 min)?
**A.** 12.28 ± 1.96 % ID/g wet weight

**Q.** What about the “Absorption Amount, liver” value ([2]; 30 min) of the same molecule?
**A.** 13.74 ± 1.36 % ID/g wet weight

**Q.** And the “Absorption Amount, liver” value ([2]; 60 min)?
**A.** 9.74 ± 0.07 % ID/g wet weight

**Q.** And the “Absorption Amount, liver” value ([2]; 90 min)?
**A.** 7.46 ± 0.19 % ID/g wet weight

**Q.** And the “Absorption Amount, lung” value ([2]; 5 min)?
**A.** 70.52 ± 7.86 % ID/g wet weight

**Q.** And the “Absorption Amount, lung” value ([2]; 15 min)?
**A.** 20.23 ± 1.51 % ID/g wet weight

**Q.** And the “Absorption Amount, lung” value ([2]; 30 min)?
**A.** 18.30 ± 1.56 % ID/g wet weight

**Q.** And the “Absorption Amount, lung” value ([2]; 60 min)?
**A.** 7.64 ± 0.99 % ID/g wet weight

**Q.** What about the “Absorption Amount, lung” value ([2]; 90 min) of the same molecule?
**A.** 4.99 ± 0.45 % ID/g wet weight

**Q.** And the “Absorption Amount, muscle” value ([2]; 5 min)?
**A.** 5.51 ± 0.65 % ID/g wet weight

**Q.** What about the “Absorption Amount, muscle” value ([2]; 15 min) of the same molecule?
**A.** 3.48 ± 0.40 % ID/g wet weight

**Q.** And the “Absorption Amount, muscle” value ([2]; 30 min)?
**A.** 2.36 ± 0.30 % ID/g wet weight

**Q.** And the “Absorption Amount, muscle” value ([2]; 60 min)?
**A.** 1.79 ± 0.06 % ID/g wet weight

**Q.** What about the “Absorption Amount, muscle” value ([2]; 90 min) of the same molecule?
**A.** 1.32 ± 0.11 % ID/g wet weight

**Q.** And the “Absorption Amount, spleen” value ([2]; 5 min)?
**A.** 7.72 ± 0.65 % ID/g wet weight

**Q.** And the “Absorption Amount, spleen” value ([2]; 15 min)?
**A.** 11.58 ± 0.92 % ID/g wet weight

**Q.** And the “Absorption Amount, spleen” value ([2]; 30 min)?
**A.** 8.67 ± 0.48 % ID/g wet weight

**Q.** And the “Absorption Amount, spleen” value ([2]; 60 min)?
**A.** 4.08 ± 0.38 % ID/g wet weight

**Q.** What about the “Absorption Amount, spleen” value ([2]; 90 min) of the same molecule?
**A.** 2.97 ± 0.25 % ID/g wet weight

**Q.** What about the “difference in brain uptake between experimental group and control group” value [3] of the same molecule?
**A.** no significant difference

**Q.** And the logP [4]?
**A.** 1.64 ± 0.12

**Q.** What about the “difference in brain uptake between experimental group and control group” value (α4β2 nAChR) of the same molecule?
**A.** no significant difference

**Q.** What about the “time of highest brain uptake in PET images” value [5] of the same molecule?
**A.** 15 min
